From ChEMBL document CHEMBL4052759, “Discovery of DS79182026: A potent orally active hepcidin production inhibitor” (Bioorg Med Chem Lett, 2017)
One block for each compound: values may come before it.

Columns and labels:
[1] = biological target: T1, Serine/threonine-protein kinase 3 (Homo sapiens) (UniProt Q13188); experiment: Inhibition of MST2 (unknown origin) at 0.078 uM relative to control
T1 sequence (whole entry): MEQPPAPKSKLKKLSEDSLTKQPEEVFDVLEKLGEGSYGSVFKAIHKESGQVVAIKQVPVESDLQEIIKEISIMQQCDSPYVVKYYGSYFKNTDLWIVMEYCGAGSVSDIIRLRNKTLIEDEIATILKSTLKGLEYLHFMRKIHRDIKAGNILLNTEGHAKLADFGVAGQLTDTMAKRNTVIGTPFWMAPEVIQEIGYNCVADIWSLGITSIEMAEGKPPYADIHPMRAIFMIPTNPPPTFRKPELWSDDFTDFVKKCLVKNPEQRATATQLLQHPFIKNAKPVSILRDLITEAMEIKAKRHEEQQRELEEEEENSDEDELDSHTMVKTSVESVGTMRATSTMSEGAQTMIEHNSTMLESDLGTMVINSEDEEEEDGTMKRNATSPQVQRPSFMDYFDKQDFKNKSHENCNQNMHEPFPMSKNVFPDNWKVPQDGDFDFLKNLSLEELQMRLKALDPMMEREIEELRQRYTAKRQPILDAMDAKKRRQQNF

[2] = biological target: Receptor tyrosine-protein kinase erbB-4 (Homo sapiens) (UniProt Q15303); experiment: Inhibition of HER4 (unknown origin) at 0.45 uM relative to control
[3] = system: Tyrosine-protein kinase ABL1 (Homo sapiens), P00519 [H396P]; experiment: Inhibition of Abl H396P mutant (unknown origin) at 0.45 uM relative to control
[4] = biological target: Tyrosine-protein kinase Fes/Fps (Homo sapiens) (UniProt P07332); experiment: Inhibition of FES (unknown origin) at 0.45 uM relative to control
[5] = biological target: Tyrosine-protein kinase Blk (Homo sapiens) (UniProt P51451); experiment: Inhibition of BLK (unknown origin) at 0.45 uM relative to control
[6] = biological target: Serine/threonine-protein kinase 25 (Homo sapiens) (UniProt O00506); experiment: Inhibition of YSK (unknown origin) at 0.45 uM relative to control
[7] = system: Tyrosine-protein kinase ABL1 (Homo sapiens), P00519 [T315I]; experiment: Inhibition of Abl T315I mutant (unknown origin) at 0.45 uM relative to control
[8] = biological target: Serine/threonine-protein kinase PAK 5 (Homo sapiens) (UniProt Q9P286); experiment: Inhibition of PAK5 (unknown origin) at 0.45 uM relative to control
[9] = biological target: Ephrin type-A receptor 2 (Homo sapiens) (UniProt P29317); experiment: Inhibition of EPHA2 (unknown origin) at 0.49 uM relative to control
[10] = biological target: Protein kinase C alpha type (Homo sapiens) (UniProt P17252); experiment: Inhibition of PKC-alpha (unknown origin) at 0.49 uM relative to control
[11] = biological target: Serine/threonine-protein kinase BRSK2 (Homo sapiens) (UniProt Q8IWQ3); experiment: Inhibition of BRSK2 (unknown origin) at 0.49 uM relative to control
[12] = biological target: Death-associated protein kinase 1 (Homo sapiens) (UniProt P53355); experiment: Inhibition of DAPK1 (unknown origin) at 0.49 uM relative to control
[13] = biological target: Homeodomain-interacting protein kinase 1 (Homo sapiens) (UniProt Q86Z02); experiment: Inhibition of HIPK1 (unknown origin) at 0.49 uM relative to control
[14] = biological target: T2, cGMP-dependent protein kinase 1 (Homo sapiens) (UniProt Q13976); experiment: Inhibition of PKG-alpha (unknown origin) at 0.49 uM relative to control
T2 sequence (whole entry): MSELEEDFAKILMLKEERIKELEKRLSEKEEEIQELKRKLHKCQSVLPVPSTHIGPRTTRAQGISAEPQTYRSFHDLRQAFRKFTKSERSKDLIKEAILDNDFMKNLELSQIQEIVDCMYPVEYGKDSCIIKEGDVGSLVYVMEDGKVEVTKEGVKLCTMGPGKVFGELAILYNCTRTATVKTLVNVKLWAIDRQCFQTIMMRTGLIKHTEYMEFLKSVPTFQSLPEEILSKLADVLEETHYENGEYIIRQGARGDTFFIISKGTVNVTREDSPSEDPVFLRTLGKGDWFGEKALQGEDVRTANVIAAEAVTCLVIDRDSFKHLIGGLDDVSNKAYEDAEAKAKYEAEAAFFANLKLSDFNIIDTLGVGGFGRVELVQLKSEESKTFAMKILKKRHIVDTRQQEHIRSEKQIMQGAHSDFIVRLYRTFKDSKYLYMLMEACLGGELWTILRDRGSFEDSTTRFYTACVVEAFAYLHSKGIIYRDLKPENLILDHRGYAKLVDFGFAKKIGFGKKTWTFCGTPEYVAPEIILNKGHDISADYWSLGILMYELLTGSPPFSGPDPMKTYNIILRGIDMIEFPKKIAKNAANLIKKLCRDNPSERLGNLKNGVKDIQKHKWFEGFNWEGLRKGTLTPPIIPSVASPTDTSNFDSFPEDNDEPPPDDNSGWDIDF

[15] = system: Proto-oncogene tyrosine-protein kinase receptor Ret (Homo sapiens), P07949 [M918T]; experiment: Inhibition of RET M918T mutant (unknown origin) at 0.49 uM relative to control
[16] = biological target: Dual specificity tyrosine-phosphorylation-regulated kinase 2 (Homo sapiens) (UniProt Q92630); experiment: Inhibition of DYRK2 (unknown origin) at 0.49 uM relative to control
[17] = biological target: Mitogen-activated protein kinase kinase kinase kinase 2 (Homo sapiens) (UniProt Q12851); experiment: Inhibition of GCK (unknown origin) at 0.49 uM relative to control
[18] = biological target: Tyrosine-protein kinase TXK (Homo sapiens) (UniProt P42681); experiment: Inhibition of TXK (unknown origin) at 0.49 uM relative to control
[19] = system: Mitogen-activated protein kinase 14 (Homo sapiens), Q16539 [T106M]; experiment: Inhibition of SAPK2a T106M mutant (unknown origin) at 0.49 uM relative to control
[20] = biological target: Tyrosine-protein kinase HCK (Homo sapiens) (UniProt P08631); experiment: Inhibition of Hck (unknown origin) at 0.49 uM relative to control

- inhibition [1]: 2%
Structure (SMILES): COC(=O)Nc1noc2cc(-c3c(-c4ccccn4)n[nH]c3C)ccc12

- inhibition [2]: -7%
- inhibition [3]: 84%
- inhibition [4]: -3.3%
- inhibition [5]: 20%
- inhibition [6]: 31%
- inhibition [7]: 58.7%
- inhibition [8]: 5.3%
Structure (SMILES): Cc1n[nH]c(C)c1-c1ccc2c(NC(=O)c3ccc(N4CCN(C)CC4)cc3)n[nH]c2c1

- inhibition [9]: -0.3%
- inhibition [10]: 2%
- inhibition [11]: -2.3%
- inhibition [13]: 1.7%
- inhibition [14]: 0%
- inhibition [15]: 1%
- inhibition [16]: 3.3%
- inhibition [17]: 11.3%
- inhibition [18]: -0.3%
- inhibition [19]: -0.3%
- inhibition [20]: 3.3%
Structure (SMILES): Cc1[nH]nc(C2CC2)c1-c1ccc2c(NC(=O)C3CC3)noc2c1
- inhibition [12]: -2.7%
